Reference: patent publication US9340493B2, “Hydroxamic acid derivatives useful as antibacterial agents” (Pfizer Inc., priority 2008, dated 2016)
Converted amounts (≈) assume the structure as drawn.

Experiments:
P. aeruginosa UI-18 = assay: MIC determination, P. aeruginosa UI-18; format: cell-based; conditions: Pseudomonas aeruginosa, UI18; wild-type; * = arithmetic mean of 2-6 MIC determinations; read-out: MIC (ug/mL) P. aeruginosa UI-18
Procedure: (§1) MIC determinations: The in vitro antibacterial activity of compounds described in the Examples was evaluated by minimum inhibitory concentration (MIC) testing according to Clinical and Laboratory Standards Institute (CLSI, formerly NCCLS) guidelines. See: Clinical and Laboratory Standards Institute. Methods for Dilution Antimicrobial Susceptibility Tests for Bacteria that Grow Aerobically; Approved Standard-Seventh Edition. CLSI document M7-A7 [ISBN 1-56238-587-9]. Clinical and Laboratory Standards Institute, 940 West Valley Road, Suite 1400, Wayne, Pa. 19087-1898 USA, 2006; also Clinical and Laboratory Standards Institute. Performance Standards for Antimicrobial Susceptibility Testing; Eighteenth Informational Supplement. CLSI document M100-S18 [ISBN1-56238-653-0]. Clinical and Laboratory Standards Institute.
(§2) The following bacterial strains were used:
P. aeruginosa UI-18: Wild-type;

P. aeruginosa PAO280 = assay: MIC determination, P. aeruginosa PAO280; format: cell-based; conditions: Pseudomonas aeruginosa, PAO280, read-out: MIC (ug/mL) P. aeruginosa PAO280
Procedure: as §1, §2
Pseudomonas aeruginosa PA0280: lacks efflux pumps MexAB-oprM, MexXY and MexZ

Escherichia coli EC-1 = assay: MIC determination, E. coli EC-1; format: cell-based; conditions: EC1, EC-1: VOGEL, * = arithmetic mean of 2-6 MIC determinations, read-out: MIC (ug/mL) E. coli EC-1
Procedure: as §1, §2
Escherichia coli EC-1: VOGEL;

[1] = tested on: Acinetobacter baumanii/haemolyticus; assay: MIC determination, A. baumanii/haemolyticus; format: cell-based; conditions: Acinetobacter baumannii; multidrug-resistant clinical isolate; * = arithmetic mean of 2-6 MIC determinations; read-out: MIC (ug/mL) A. baumanii/haemolyticus
Procedure: as §1, §2
Acinetobacter baumanii/haemolyticus: Multidrug-resistant clinical isolate;

[2] = tested on: Staphylococcus aureus ATCC 29213; assay: MIC determination, S. aureus ATCC 29213; format: cell-based; conditions: ATCC29213, CLSI quality control reference strain, * = arithmetic mean of 2-6 MIC determinations, read-out: MIC (ug/mL) S. aureus ATCC 29213
Procedure: as §1, §2
Staphylococcus aureus ATCC 29213: CLSI quality control reference strain; and […]

Klebsiella pneumoniae = assay: MIC determination, K. pneumoniae; format: cell-based; conditions: ciprofloxacin-resistant, ESBL-expressing clinical isolate, * = arithmetic mean of 2-6 MIC determinations, read-out: MIC (ug/mL) K. pneumoniae
Procedure: as §1, §2
Klebsiella pneumoniae: Ciprofloxacin-resistant isolate, expresses extended-spectrum beta-lactamases (ESBL), clinical isolate;

[3] = biological target: T1, Pseudomonas aeruginosa LpxC enzyme (Pseudomonas aeruginosa, UniProt P47205); assay: IC50 assay, LpxC enzyme from P. aeruginosa; format: biochemical; conditions: 0.5 nM enzyme, 25° C., pH 8.0, 20 min; ** = average of 2-8 assays
T1 construct: made in house; host or cells: E. coli
T1 sequence (P47205 1-303): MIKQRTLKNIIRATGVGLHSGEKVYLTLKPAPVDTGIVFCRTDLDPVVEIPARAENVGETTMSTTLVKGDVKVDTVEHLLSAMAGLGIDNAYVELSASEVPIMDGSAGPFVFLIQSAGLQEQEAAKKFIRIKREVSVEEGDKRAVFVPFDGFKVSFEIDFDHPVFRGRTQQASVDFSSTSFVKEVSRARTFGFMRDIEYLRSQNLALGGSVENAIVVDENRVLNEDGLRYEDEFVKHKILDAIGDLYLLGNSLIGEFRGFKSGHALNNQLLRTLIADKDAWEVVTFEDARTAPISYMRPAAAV
Procedure: IC50 assay, LpxC enzyme from P. aeruginosa: IC50 determination in the LpxC enzyme assay was carried out in a similar manner to that described by S. A. Hyland et al., J. Bacteriology 1997, 179, 2029-2037. [See also T. Kline et al., J. Medicinal Chemistry 2002, 45, 3112-3129.] Briefly, Pseudomonas aeruginosa LpxC enzyme (0.5 nM) purified from E. coli-overexpressing bacteria was incubated at 25° C. in a final volume of 25 ul containing 0.5 uM UDP-3-O—(R-3-hydroxydecanoyl)-N—[^3H-acetyl]glucosamine (B. D. Maxwell and J. C. Bronstein, J. Labeled Compounds and Radiopharmaceuticals 2005, 48, 1049-1054), 1 mg/ml BSA, and 50 mM sodium phosphate buffer, pH 8.0 in the presence and absence of inhibitor compound. At the end of 20 min, 90 ul of a pre-mixed 3% suspension of activated charcoal in 100 mM sodium acetate, pH 7.5, was added to stop the enzyme reaction. The contents of the well were transferred to a filter plate and filtered, and an aliquot of the filtrate was quantitated by liquid scintillation spectrometry. A no-enzyme control was subtracted in order to eliminate background counts.

Enterobacter aerogenes = assay: MIC determination, E. aerogenes; format: cell-based; conditions: Klebsiella aerogenes; quinolone-resistant, ESBL-expressing clinical isolate; * = arithmetic mean of 2-6 MIC determinations; read-out: MIC (ug/mL) E. aerogenes
Procedure: as §1, §2
Enterobacter aerogenes: Quinolone-resistant isolate, expresses extended-spectrum beta-lactamases (ESBL), clinical isolate;

Row | Compound | MIC (P. aeruginosa UI-18) [µg/mL] | MIC (P. aeruginosa PAO280) [µg/mL] | MIC (Escherichia coli EC-1) [µg/mL] | MIC [1] [µg/mL] | MIC [2] [µg/mL] | MIC (Klebsiella pneumoniae) [µg/mL] | IC50 [3] [µM] | MIC (Enterobacter aerogenes) [µg/mL]
1 | Cc1cccnc1CCNC(=O)C(C)(OCc1ccc(-c2ccccc2)cc1)C(=O)NO (stereo not shown) [Example 70, 2-(biphenyl-4-ylmethoxy)-N-hydroxy-2-methyl-N′-[2-(3-methylpyridin-2-yl)ethyl]malonamide] | 32 (≈ 73.8 µM) | 1 (≈ 2.31 µM) | 16 (≈ 36.9 µM) | 32 (≈ 73.8 µM) | > 64 | > 64 | 0.00804 | > 64
2 | CC(OCc1ccc(-c2ccccc2)cc1)(C(=O)NO)C(=O)NCc1nnn[nH]1 (stereo not shown) [Example 57, 2-(biphenyl-4-ylmethoxy)-N-hydroxy-2-methyl-N′-(1H-tetrazol-5-ylmethyl)malonamide] | > 64 | 4 (≈ 10.1 µM) | > 64 | > 64 | > 64 | > 64 | 0.00134 | > 64
3 | C[C@@](OCc1ccc(-c2ccccc2)cc1)(C(=O)NO)[C@@H](O)c1ccc(CO)o1 [Example 14, (2S,3S)-2-(biphenyl-4-ylmethoxy)-N,3-dihydroxy-3-[5-(hydroxymethyl)-2-furyl]-2-methylpropanamide] | 16 (≈ 40.3 µM) | 0.5 (≈ 1.26 µM) | > 64 | > 64 | > 64 | > 64 | 0.000582 | > 64
4 | C[C@@](OCc1ccc(-c2ccccc2)cc1)(C(=O)NO)[C@@H](O)c1ccccn1 [Example 17, (2S,3S)-2-(biphenyl-4-ylmethoxy)-N,3-dihydroxy-2-methyl-3-pyridin-2-ylpropanamide] | 8 (≈ 21.1 µM) | 0.25 (≈ 0.661 µM) | 16 (≈ 42.3 µM) | 32 (≈ 84.6 µM) | > 64 | > 64 | 0.0015 | > 64
5 | CCc1ccc(-c2ccc(CO[C@](C)(C(=O)NO)[C@@H](O)c3cc(CO)on3)cc2)cc1 [Example 36, (2S,3S)-2-[(4′-ethylbiphenyl-4-yl)methoxy]-N,3-dihydroxy-4-[5-(hydroxymethyl)isoxazol-3-yl]-2-methylpropanamide] | 1 (≈ 2.34 µM) | 0.03 (≈ 0.0703 µM) | 4 (≈ 9.38 µM) | 32 (≈ 75 µM) | 64 (≈ 150 µM) | 16 (≈ 37.5 µM) | 0.000244 | 64 (≈ 150 µM)
6 | Cc1cc(-c2ccc(COC(C)(C(=O)NO)C(=O)NCc3cc(C)on3)cc2)ccn1 (stereo not shown) [Example 86, N-hydroxy-2-methyl-N′-[(5-methylisoxazol-3-yl)methyl]-2-{[4-(2-methylpyridin-4-yl)benzyl]oxy}malonamide] | 16 (≈ 37.7 µM) | 0.25 (≈ 0.589 µM) | > 64 | > 64 | > 64 | > 64 | 0.00681 | > 64
7 | C[C@@](OCc1ccc(-c2ccccc2)cc1)(C(=O)NO)[C@@H](O)c1cncs1 [Example 21, (2S,3R)-2-(biphenyl-4-ylmethoxy)-N,3-dihydroxy-2-methyl-3-(1,3-thiazol-5-yl)propanamide] | > 64 | 4 (≈ 10.4 µM) | > 64 | > 64 | > 64 | > 64 | 0.00823 | > 64
8 | CCCc1ccc(-c2ccc(COC(CO)(CO)C(=O)NO)cc2)cc1 [Example 51, N,3-dihydroxy-2-(hydroxymethyl)-2-[(4′-propylbiphenyl-4-yl)methoxy]propanamide] | > 16 | 1 (≈ 2.78 µM) | > 16 | > 16 | > 16 | > 16 | 0.00186 | > 16
